The target in assay [1] is T1, Brd4 bromodomain 1 (BRD4(1)) (Homo sapiens, UniProt O60885).
T1 construct: made in house; host or cells: E. coli BL21(DE3)
Briefly: Inhibition of tetra-acetylated histone H4 binding to Brd4 bromodomain 1 (TR-FRET). The conditions noted are these: tetra-acetylated histone H4 peptide, first bromodomain of Brd4. As for the experimental part: Proteins were cloned and overexpressed with a N-terminal 6× His tag, then purified by nickel affinity followed by size exclusion chromatography. Briefly, E.coli BL21(DE3) cells were transformed with a recombinant expression vector encoding N-terminally Nickel affinity tagged bromodomains from Brd2, Brd3, Brd4. Cell cultures were incubated at 37° C. with shaking to the appropriate density and induced overnight with IPTG. The supernatant of lysed cells was loaded onto Ni-IDA column for purification. Eluted protein was pooled, concentrated and further purified by size exclusion chromatography. Fractions representing monomeric protein were pooled, concentrated, aliquoted, and frozen at −80° C. for use in subsequent experiments.
Binding of tetra-acetylated histone H4 and BET bromodomains was confirmed by a Time Resolved Fluorescence Resonance Energy Transfer (TR-FRET) method. N-terminally His-tagged bromodomains (200 nM) and biotinylated tetra-acetylated histone H4 peptide (25-50 nM, Millipore) were incubated in the presence of Europium Cryptate-labeled streptavidin (Cisbio Cat. #610SAKLB) and XL665-labeled monoclonal anti-His antibody (Cisbio Cat. #61HISXLB) in a white 96 well microtiter plate (Greiner). For inhibition assays, serially diluted test compound was added to these reactions in a 0.2% final concentration of DMSO. Final buffer concentrations were 30 mM HEPES pH 7.4, 30 mM NaCl, 0.3 mM CHAPS, 20 mM phosphate pH 7.0, 320 mM KF, 0.08% BSA). After a 2-h incubation at room temperature, the fluorescence by FRET was measured at 665 and 620 nm by a SynergyH4 plate reader (Biotek). The binding inhibitory activity was shown by a decrease in 665 nm fluorescence relative to 620 nm. IC50 values were determined from a dose response curve.
(In TR-FRET formats the signal depends on donor and acceptor labels being close together.)

A further assay concerns human AML MV-4-11 cells. Kind of assay: Inhibition of cell proliferation in MV4-11 cells (CellTiter Aqueous One). It counts as cell-based. The note with it: MV4-11, 72 h. The method, then: MV4-11 cells: 96-well plates were seeded with 5×10^4 cells per well of exponentially growing human AML MV-4-11 (CRL-9591) cells and immediately treated with two-fold dilutions of test compounds, ranging from 30 μM to 0.2 μM. Triplicate wells were used for each concentration, as well as a media only and three DMSO control wells. The cells and compounds were incubated at 37° C., 5% CO2 for 72 h before adding 20 μL of the CellTiter Aqueous One Solution (Promega) to each well and incubating at 37° C., 5% CO2 for an additional 3-4 h. The absorbance was taken at 490 nm in a spectrophotometer and the percentage of proliferation relative to DMSO-treated cells was calculated after correction from the blank well. IC50 were calculated using the GraphPad Prism software.

In the next assay the test system is c-myc. Briefly: Inhibition of c-myc expression (mRNA, real-time PCR) in MV4-11 cells. It counts as cell-based. The conditions noted are these: Human AML MV4-11 cells, 3 h, cMYC mRNA. As for the experimental part:
MV4-11 cells (CRL-9591) were plated at a density of 2.5×10^4 cells per well in 96 well U-bottom plates and treated with increasing concentrations of test compound or DMSO (0.1%) in IMDM media containing 10% FBS and penicillin/streptomycin, and incubated for 3 h at 37° C. Triplicate wells were used for each concentration. Cells were pelleted by centrifugation and harvested using the mRNA Catcher PLUS kit according to manufacturer's instructions. The eluted mRNA isolated was then used in a one-step quantitative real-time PCR reaction, using components of the RNA UltraSense™ One-Step Kit (Life Technologies) together with Applied Biosystems TaqMan® primer-probes for cMYC and Cyclophilin. Real-time PCR plates were run on a VIaTM7 real time PCR machine (Applied Biosystems), data was analyzed, normalizing the Ct values for cMYC to an internal control, prior to determining the fold expression of each sample, relative to the control.
For orientation: Quantitative PCR measures a nucleic acid by following its amplification.

Structures are written as SMILES. Bounds are passed on as bounds.

For orientation: IC50 means the concentration that gives 50% inhibition.

With `COCCNc1nc2c(N)cc(-c3c(C)noc3C)cc2n1Cc1ccccc1` [compound 139, 1-benzyl-6-(3,5-dimethylisoxazol-4-yl)-N2-(2-methoxyethyl)-1H-benzo[d]imidazole-2,4-diamine], the IC50 (in assay [1]; with human AML MV-4-11 cells; in the assay on c-myc) was no more than 300 nM in each case.

As to `Cc1noc(C)c1Nc1cc(N)c2nc(C)n(Cc3ccccc3)c2c1` [compound 142, 1-benzyl-N6-(3,5-dimethylisoxazol-4-yl)-2-methyl-1H-benzo[d]imidazole-4,6-diamine], the concentration for half-maximal inhibition (IC50) fell in the range of 300 to 3000 nM in assay [1], 3000 to 30000 nM with human AML MV-4-11 cells and 300 to 3000 nM in the assay with c-myc.

`Cc1noc(C)c1-c1cc([N+](=O)[O-])c2[nH]c(=O)n(CC3CC3)c2c1` [compound 145, 1-(cyclopropylmethyl)-6-(3,5-dimethylisoxazol-4-yl)-4-nitro-1H-benzo[d]imidazol-2(3H)-one]: the results for the concentration for half-maximal inhibition (IC50) (in assay [1]; in the assay on human AML MV-4-11 cells; in the assay with c-myc) were no more than 300 nM, 3000 to 30000 nM and 3000 to 30000 nM, respectively.

Take `CCNc1nc2c([N+](=O)[O-])cc(-c3c(C)noc3C)cc2n1CC1CC1` [compound 159, 1-(cyclopropylmethyl)-6-(3,5-dimethylisoxazol-4-yl)-N-ethyl-4-nitro-1H-benzo[d]imidazol-2-amine]: the concentration for half-maximal inhibition (IC50) is no more than 300 nM in assay [1], 300 to 3000 nM with human AML MV-4-11 cells and no more than 300 nM in the assay on c-myc.

Consider `CCNc1nc2c(N)cc(-c3c(C)noc3C)cc2n1CC1CC1` [compound 160, 1-(cyclopropylmethyl)-6-(3,5-dimethylisoxazol-4-yl)-N2-ethyl-1H-benzo[d]imidazole-2,4-diamine], for which the half-maximal inhibitory concentration (IC50) in assay [1] is no more than 300 nM; in the assay on human AML MV-4-11 cells, 300 to 3000 nM; in the assay on c-myc, 300 to 3000 nM.

For the compound `Cc1noc(C)c1-c1cc(F)c2[nH]c(=O)n(Cc3ccccc3)c2c1` [compound 163, 1-benzyl-6-(3,5-dimethylisoxazol-4-yl)-4-fluoro-1H-benzo[d]imidazol-2(3H)-one], the values for the 50% inhibitory concentration (IC50) (in assay [1]; in the assay with human AML MV-4-11 cells; with c-myc) were no more than 300 nM, 300 to 3000 nM and 300 to 3000 nM, respectively.

For `Cc1noc(C)c1-c1cnc2nc(N3CCN(C)CC3)n(Cc3ccccc3)c2c1` [compound 165, 4-(1-benzyl-2-(4-methylpiperazin-1-yl)-1H-imidazo[4,5-b]pyridin-6-yl)-3,5-dimethylisoxazole], the IC50 in assay [1] is no more than 300 nM; with human AML MV-4-11 cells it was 300 to 3000 nM; in the assay on c-myc, 300 to 3000 nM.

`COCCNc1nc2ncc(-c3c(C)noc3C)cc2n1Cc1ccccc1` [compound 167, 1-benzyl-6-(3,5-dimethylisoxazol-4-yl)-N-(2-methoxyethyl)-1H-imidazo[4,5-b]pyridin-2-amine]: the IC50 (in assay [1]; with human AML MV-4-11 cells; in the assay with c-myc) was no more than 300 nM in each case.

For the compound `Cc1noc(C)c1-c1cc(S(C)(=O)=O)c2nc(C)n(Cc3ccccc3)c2c1` [compound 168, 4-(1-benzyl-2-methyl-4-(methylsulfonyl)-1H-benzo[d]imidazol-6-yl)-3,5-dimethylisoxazole], the IC50 in assay [1] is no more than 300 nM; with human AML MV-4-11 cells, 300 to 3000 nM; with c-myc, 300 to 3000 nM.

As for `Cc1noc(C)c1-c1cnc2nc(NCc3ccncc3)n(Cc3ccccc3)c2c1` [compound 169, 1-benzyl-6-(3,5-dimethylisoxazol-4-yl)-N-(pyridin-4-ylmethyl)-1H-imidazo[4,5-b]pyridin-2-amine], the IC50 (in assay [1]; in the assay with human AML MV-4-11 cells; in the assay with c-myc) was no more than 300 nM in each case.

In the case of `Cc1noc(C)c1-c1cnc2nc(NC3CCOCC3)n(Cc3ccccc3)c2c1` [compound 170, 1-benzyl-6-(3,5-dimethylisoxazol-4-yl)-N-(tetrahydro-2H-pyran-4-yl)-1H-imidazo[4,5-b]pyridin-2-amine], the half-maximal inhibitory concentration (IC50) (in assay [1]; in the assay on human AML MV-4-11 cells; in the assay with c-myc) was no more than 300 nM each time.

`Cn1nccc1-c1cnc2[nH]c(=O)n(Cc3ccccc3)c2c1` [compound 171, 1-benzyl-6-(1-methyl-1H-pyrazol-5-yl)-1H-imidazo[4,5-b]pyridin-2(3H)-one]: the 50% inhibitory concentration (IC50) (in assay [1]; with human AML MV-4-11 cells; with c-myc) was 300 to 3000 nM throughout.

Consider `Cc1noc(C)c1-c1cc([N+](=O)[O-])c2[nH]c(=O)n([C@@H](C)c3ccccc3)c2c1` [compound 172, (S)-6-(3,5-dimethylisoxazol-4-yl)-4-nitro-1-(1-phenylethyl)-1H-benzo[d]imidazol-2(3H)-one], for which the IC50 in assay [1] is no more than 300 nM; in the assay with human AML MV-4-11 cells it was 300 to 3000 nM; with c-myc it was no more than 300 nM.

Consider `Cc1noc(C)c1-c1cc(O)c2nc(C)n(Cc3ccccc3)c2c1` [compound 173, 1-benzyl-6-(3,5-dimethylisoxazol-4-yl)-2-methyl-1H-benzo[d]imidazol-4-ol], for which the IC50 in assay [1] was no more than 300 nM; in the assay with human AML MV-4-11 cells, 300 to 3000 nM; in the assay with c-myc, no more than 300 nM.

Turning to `Cc1noc(C)c1-c1ccc2c(c1)N(Cc1ccccc1)[C@H](C)C(=O)N2` [compound 174, (R)-4-benzyl-6-(3,5-dimethylisoxazol-4-yl)-3-methyl-3,4-dihydroquinoxalin-2(1H)-one], the IC50 in assay [1] is no more than 300 nM; in the assay with human AML MV-4-11 cells it was 300 to 3000 nM; in the assay with c-myc, 300 to 3000 nM.

Consider `Cn1nccc1-c1cnc2nc(NC3CCOCC3)n(Cc3ccccc3)c2c1` [compound 176, 1-benzyl-6-(1-methyl-1H-pyrazol-5-yl)-N-(tetrahydro-2H-pyran-4-yl)-1H-imidazo[4,5-b]pyridin-2-amine], for which the IC50 (in assay [1]; in the assay with human AML MV-4-11 cells; in the assay with c-myc) was 300 to 3000 nM each time.

Consider `Cc1noc(C)c1-c1cc(N)c2[nH]c(=S)n(Cc3ccccc3)c2c1` [compound 177, 4-amino-1-benzyl-6-(3,5-dimethylisoxazol-4-yl)-1H-benzo[d]imidazole-2(3H)-thione], for which the IC50 is 300 to 3000 nM in assay [1], no more than 300 nM with human AML MV-4-11 cells and no more than 300 nM in the assay on c-myc.

As for `Cc1noc(C)c1-c1cc(N)c2[nH]c(=O)n([C@@H](C)c3ccccc3)c2c1` [compound 178, (S)-4-amino-6-(3,5-dimethylisoxazol-4-yl)-1-(1-phenylethyl)-1H-benzo[d]imidazol-2(3H)-one], the IC50 in assay [1] was no more than 300 nM; in the assay with human AML MV-4-11 cells, 300 to 3000 nM; in the assay with c-myc it was no more than 300 nM.

Turning to `Cc1noc(C)c1-c1cc(N)c2[nH]c(=O)n([C@H](C)c3ccccc3)c2c1` [compound 179, (R)-4-amino-6-(3,5-dimethylisoxazol-4-yl)-1-(1-phenylethyl)-1H-benzo[d]imidazol-2(3H)-one], the IC50 (in assay [1]; in the assay on human AML MV-4-11 cells; in the assay on c-myc) was no more than 300 nM each time.

For `Cc1noc(C)c1-c1cnc2[nH]c(=O)n(Cc3ccccc3)c2c1C` [compound 180, 1-benzyl-6-(3,5-dimethylisoxazol-4-yl)-7-methyl-1H-imidazo[4,5-b]pyridin-2(3H)-one], the IC50 in assay [1] is no more than 300 nM; in the assay with human AML MV-4-11 cells it was 300 to 3000 nM; in the assay on c-myc, 300 to 3000 nM.

For the compound `Cc1noc(C)c1-c1cnc2nc(C)n(Cc3ccccc3)c2c1C` [compound 181, 4-(1-benzyl-2,7-dimethyl-1H-imidazo[4,5-b]pyridin-6-yl)-3,5-dimethylisoxazole], the values for the half-maximal inhibitory concentration (IC50) (in assay [1]; in the assay with human AML MV-4-11 cells; in the assay on c-myc) were no more than 300 nM, 300 to 3000 nM and no more than 300 nM, respectively.

Take `Cc1noc(C)c1-c1cc(N2CCOCC2)c2nc(C)n(Cc3ccccc3)c2c1` [compound 182, 4-(1-benzyl-6-(3,5-dimethylisoxazol-4-yl)-2-methyl-1H-benzo[d]imidazol-4-yl)morpholine]: the half-maximal inhibitory concentration (IC50) in assay [1] was no more than 300 nM; in the assay on human AML MV-4-11 cells, 300 to 3000 nM; in the assay on c-myc, 300 to 3000 nM.

These data come from US10363257B2 (ZENITH EPIGENETICS LTD., priority 2013, dated 2019).
